In patent US20190315878A1, “BISPECIFIC ANTIBODIES THAT MODULATE TLR-4 SIGNALING AND USES THEREOF” (ARGOS THERAPEUTICS INC., priority 2016, published 2019):

How the values were obtained:
[1] = molecular target: T1, MD-2 binding to sCD83-m3 (Homo sapiens, UniProt Q9Y6Y9); experiment: LPS derivatives pre-incubated with MD-2; loss of MD-2 binding to sCD83 (cell free ELISA); details: for % inhibition of MD-2 binding to sCD83-m3: LPS derivatives pre-incubated with MD-2, cell free ELISA; for blocking of MD-2 binding to sCD83: FIG. 6B
T1 sequence (Q9Y6Y9 17-160 limits assumed): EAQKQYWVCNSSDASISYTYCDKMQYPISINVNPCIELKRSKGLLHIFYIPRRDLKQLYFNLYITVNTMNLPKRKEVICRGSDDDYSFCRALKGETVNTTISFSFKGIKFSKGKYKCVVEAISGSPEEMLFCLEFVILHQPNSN
Protocol: sCD83 was prepared at 1 μg/mL in Coating Buffer (BD® Bioscience OptEIA ELISA Reagent Set B) and incubated overnight at 4° C. Plates were washed with wash buffer (PBS with 0.05% Tween 20, BD® Bioscience OptEIA Reagent Set B) three times using an ELx405 auto plate washer and then 300 μl of blocking buffer (1% BSA in PBS) was added to each well. The plates were then incubated for 2 hours at 37° C. to block and then washed three times with wash buffer. The protein of interest (MD-2, CD14, MD-2+LPS, or LPS) (R&D Systems®, Inc., Sigma) was serially diluted in seven tubes, and then 100 μl of the diluted protein samples were transferred to the appropriate wells on the capture plate. The plates were then incubated for 1 hour at room temperature in the dark. Plates were washed and goat anti-human biotinylated CD83 detection antibody (R&D Systems®, Inc.) was added at 100 μl/well and incubated for 2 hours at room temperature in the dark. The plates were then washed, and streptavidin-HRP was prepared at a 1:1000 dilution and added at 100 μl/well. The plates were incubated for 1 hour at room temperature in the dark and then washed, and development solution was prepared by combining equal parts of Substrate A plus Substrate B (BD® OptEIA ELISA Reagent Set B) and added to the plates (100 μl/well). The plates were allowed to develop for 1-10 minutes and the reaction was stopped by adding 50 μl/well of stop solution (BD® OptEIA reagents set B). The plates were analyzed on a ELx800 universal microplate reader at 450 nm.
In order to map the sCD83 binding site on MD-2, recombinant MD-2 protein was pre-incubated with each of several LPS derivatives prior to being added to plates coated with sCD83 protein. […] If MD-2 bound to LPS or the LPS derivatives blocked sCD83 binding, the interaction of sCD83 with MD-2 may mimic antagonist regulation of TLR signaling.

[2] = tested on: IRAK-1; experiment: Western blotting of GM-CSF-cultured monocytes; type: cell-based, human; details: 60 minutes; 25 μg/ml sCD83 or 100 ng/ml LPS; FIG. 7A
Protocol: Monocytes were isolated from PBMC using negative selection (Stemcell) and cultured in R-10 medium ((10% fetal bovine serum (FBS; Atlanta Biologicals), Roswell Park Memorial Institute-1640 (supplemented with 10 mM 4-2-hydroxyethyl-1-piperazineethanesulfonic acid pH 7.4, 1 mM sodium pyruvate, 0.1 mM nonessential amino acids, 2 mM sodium glutamate, and […] 2-mercaptoethanol; Invitrogen® Corp.)) with GM-CSF overnight. sCD83 or LPS was then added for the indicated time points. Cells were lysed in ice cold RIPA buffer in the presence of a protease/phosphatase inhibitor cocktail ([…]). Bradford (BCA) protein assay (Thermo Scientific) was performed to determine total protein concentrations. 4-5 μg of each lysate sample was run on each lane of a Criterion 10-20% Tris-HCL gel at 200V for 50 minutes. The gel was transferred to PVDF membrane at 100V for 75 minutes. […]
The inventors studied the expression of IRAK proteins in the presence of sCD83. […] IRAK-1 protein was detected in untreated cultures and LPS-treated cultures, in contrast to cultures treated with sCD83 (FIG. 7A). Furthermore, no change in IRAK-2, IRAK-4, and IRAK-M protein levels was detected when cells were treated with sCD83 for 60 minutes.

[3] = tested on: sCD83-m3 binding on monocytes; experiment: Antibody blocking of sCD83-m3 binding to PBMCs / monocytes (Example 2); design: species or system human; details: post-thaw PBMCs
Protocol: For antibody blocking experiments, cells were pre-incubated with the indicated purified antibodies to CD14 (clone M5E2, BD® Biosciences; clone 61D3, eBioscience® Corp.; clone My4, Beckman Coulter®, Inc.), to CD44s (clone 515, BD® Biosciences; clone 1M7, eBioscience® Corp.; and clone 156-3c11 and clone 5F12, Invitrogen® Corp.), to CD44v6 (clone VFF-7, eBiosciences® Corp.) to TLR4/MD-2 (clone MTS510, eBioscience® Corp.) or to MD-2 (clone 984, eBioscience® Corp.; clone 288307, R&D Systems®, Inc.) for 15 minutes at room temperature without washing prior to addition of sCD83 protein. Isotype control IgG1 and IgG2a antibodies were purchased from eBioscience® Corp.. Cells were washed with 2 mL BD® Stain Buffer (FBS) and incubated with 5 μl of Goat anti-human CD83 biotin (R&D Systems®, Inc.) for 15 minutes at room temperature. Cells were washed twice with 2 ml BD® Stain Buffer (FBS) and incubated with 20 μl of Streptavidin APC (BD® Biosciences) for 15 minutes at room temperature. Background staining was determined without the addition of sCD83 protein. […]

[4] = tested on: IRAK-1; experiment: IRAK assay of CD83 activity in macrophage cultures (Western blot); type: cell-based, human
Protocol: The IRAK Assay measures the rapid down-regulation of IRAK-1 protein by sCD83 in macrophage cultures. PBMCs were cultured in the presence of GM-CSF for 5 days. Macrophages were harvested and cultured overnight in media containing GM-CSF, then incubated in the presence or absence of a test antibody in 1 mL cultures for various times. Cell lysates were then used to prepare a Western blot and evaluated for IRAK expression as described in more detail in working Example 3.
One vial (2×10^8 total cells) of 2124557 PBMCs were thawed and cultured in T-150 flask with 1000 U/mL GM-CSF for 5 days. The macrophages were harvested, counted and resuspended at 1×10^6 cells/mL in R-10 media with GM-CSF and then cultured overnight. The cells were incubated with various preparations of sCD83 polypeptides, +/−25 μg/mL in 1 mL cultures for various times and then lysed in ice cold RIPA buffer with protease/phosphatase inhibitor cocktail. Bradford (BCA) protein assay was performed to determine total protein concentration.
4-5 μg of each lysate sample was run on a lane of a Criterion 10-20% Tris-HCL gel at 200V for 50 minutes. The gel was transferred to PVDF membrane at 100V for 75 minutes. […]

[5] = tested on: stimulated PBMC cultures; experiment: Cytokine secretion from stimulated PBMC cultures (Cytometric Bead Array); type: cell-based, human; details: COX-2 inhibitor in combination with sCD83
Protocol: (§1) To evaluate cytokine secretion from stimulated PBMC cultures in response to sCD83 treatment, the supernatant was collected after culture and analyzed for human cytokines using the Cytometric Bead Array kit (BD® Biosciences) according to the manufacturer's instructions. Data were analyzed using the FCAP Array software (BD® Biosciences). PGE2 concentrations were measured using a competitive ELISA kit (Thermofisher).

[6] = tested on: stimulated PBMC cultures; experiment: PGE2 secretion from stimulated PBMC cultures (competitive ELISA); type: cell-based, human; details: COX-2 inhibitor in combination with sCD83; FIG. 9E
Protocol: as §1

lipopolysaccharide [LPS] was tested, and the “% inhibition of MD-2 binding to sCD83-m3” value [1] was 25%, the IRAK-1 protein expression [2] was “detected” and the “% inhibition (relative to control)” value [3] was 5%. For the same molecule, the “down-regulation of IRAK-1 protein in macrophage cultures” value [4] was “does not have this effect” and the IRAK assay result ([4]; macrophages, 25 μg/mL) was “negative result”.
In the case of CS(=O)(=O)Nc1ccc([N+](=O)[O-])cc1OC1CCCCC1 [NS-398], the IL-6 secretion ([5]; FIG. 9C) is reported as “marginal effect”, the “sCD83 induced IL-10 secretion” value ([5]; FIG. 9D) is reported as “suppressed sCD83 inducted IL-10 secretion” and the PGE2 production [6] is reported as “blocked PGE2 production”.
For KDO-lipid A [KDO-Lipid A variant], the “% inhibition of MD-2 binding to sCD83-m3” value [1] was 93%, the “blocking of MD-2 binding to sCD83” value ([1]; added first to sCD83 bound plates and washed prior to addition of MD-2 protein) was “no longer blocked MD-2 binding to sCD83” and the “blocking of MD-2 binding to sCD83” value ([1]; pre-incubated with MD-2) was “prevented MD-2 binding to sCD83”. The “blocking of MD-2 binding to sCD83” value ([1]; pre-incubated with MD-2, listed as KDO) was “blocks sCD83 binding to MD-2”.
With “monophosphoryl-Lipid A [Lipid A Monophos]” the “% inhibition of MD-2 binding to sCD83-m3” value [1] was 22%.
In the case of diphosphoryl-Lipid A [Lipid A Diphos], the “% inhibition of MD-2 binding to sCD83-m3” value [1] is reported as 19%.
